According to patent US8598357B2, “Benzodioxole piperidine compounds” (Hoffmann-La Roche Inc., priority 2011, dated 2013):
Like-named read-outs stand apart in the source and are kept apart here.

Assays:
D2 receptor = D2 receptor (Homo sapiens (Human), UniProt P14416); experiment: Radioligand binding assay ([3H]-spiperone) on membranes of HEK293 EBNA cells expressing human D2 receptor; settings: human receptor in HEK293 EBNA cells; 0.7 nM [3H]-spiperone
Protocol: (§1) HEK293 EBNA cells were transiently transfected with expression plasmids encoding for the human D2 or D3 or for the human 5-HT2A receptor, respectively. The cells were harvested 48 h post-transfection, washed three times with cold PBS and stored at −80° C. prior to use. The pellet was suspended in cold 50 mM Tris-HCl buffer containing 10 mM EDTA (pH 7.4) and was homogenized with a Polytron (Kinematica AG, Basel, Switzerland) for 20-30 sec at 12.000 rpm. After centrifugation at 48.000×g for 30 min at 4° C., the pellet was resuspended in cold 10 mM Tris-HCl buffer containing 0.1 mM EDTA (pH 7.4), homogenized, and centrifuged as above. This pellet was further resuspended in a smaller volume of ice cold 10 mM Tris-HCl buffer containing 0.1 mM EDTA (pH 7.4) and homogenized with a Polytron for 20-30 sec at 12.000 rpm. The protein content of this homogenate was determined with the Bio-Rad (Bradford) Protein Assay (Biorad Laboratories GmbH, München, Germany) according to the instructions of the manufacturer using gamma globulin as the standard. This homogenate was stored at −80° C. in aliquots and thawed immediately prior to use.
(§2) Aliquots of membrane preparations were thawed at RT, resuspended in assay buffer (D2, D3: 50 mM Tris-HCl, 120 mM NaCl, 5 mM MgCl2, 1 mM EDTA, 5 mM KCl, 1.5 mM CaCl2, pH=7.4; 5-HT2A: 50 mM Tris-HCl, 10 mM MgCl2, 1 mM EGTA, pH=7.4), homogenized with a Polytron for 20-30 sec at 12.000 rpm and adjusted to a final concentration of approximately 7.5 μg protein/well (D2, D3) and 15 μg protein/well (5-HT2A), respectively.
(§3) The nonspecific binding was determined with equally composed reaction mixtures in the presence of 10 μM unlabelled spiperone. Per well 45 μl of Microscint 40 (Perkin Elmer, Schwerzenbach, Switzerland) was added, plates for sealed, shaken for 20 min and counted for 3 min on a Topcount Microplate Scintillation Counter (Can berra Packard SA, Ziirich, Switzerland) with quenching correction.
(§4) The CPM value for each duplicate of a concentration of competing compound was averaged (y1), then the % specific binding was calculated according to the equation (((y1−non-specific)/(total binding−non-specific))×100). Graphs were plotted with the % specific binding using XLfit, a curve fitting program that iteratively plots the data using Levenberg-Marquardt algorithm. The single site competition analysis equation used was y=A+((B−A)/(1+((x/C)D))), where y is the % specific binding, A is the minimum y, B is the maximum y, C is the IC50, x is the log 10 of the concentration of the competing compound and D is the slope of the curve (the Hill Coefficient). […] The affinity constant (K) was calculated using the Cheng-Prusoff equation Ki=(IC50/1+([L]/Kd), where [L] is the concentration of radioligand and Kd is the dissociation constant of the radioligand at the receptor as determined by the saturation isotherm.

D3 receptor = D3 receptor (Homo sapiens (Human), UniProt P35462); experiment: Radioligand binding assay ([3H]-spiperone) on membranes of HEK293 EBNA cells expressing human D3 receptor; settings: read-out: D3 Ki; human receptor in HEK293 EBNA cells; 0.5 nM [3H]-spiperone
Protocol: as §1, §2, §3, §4

5-HT2A receptor = 5-HT2A receptor (Homo sapiens (Human), UniProt P28223); experiment: Radioligand binding assay ([3H]-ketanserin) on membranes of HEK293 EBNA cells expressing human 5-HT2A receptor; settings: read-out: 5HT2A Ki
[1] = human receptor in HEK293 EBNA cells, 1.1 nM [3H]-ketanserin

D2 receptor, sequence (P14416 whole entry): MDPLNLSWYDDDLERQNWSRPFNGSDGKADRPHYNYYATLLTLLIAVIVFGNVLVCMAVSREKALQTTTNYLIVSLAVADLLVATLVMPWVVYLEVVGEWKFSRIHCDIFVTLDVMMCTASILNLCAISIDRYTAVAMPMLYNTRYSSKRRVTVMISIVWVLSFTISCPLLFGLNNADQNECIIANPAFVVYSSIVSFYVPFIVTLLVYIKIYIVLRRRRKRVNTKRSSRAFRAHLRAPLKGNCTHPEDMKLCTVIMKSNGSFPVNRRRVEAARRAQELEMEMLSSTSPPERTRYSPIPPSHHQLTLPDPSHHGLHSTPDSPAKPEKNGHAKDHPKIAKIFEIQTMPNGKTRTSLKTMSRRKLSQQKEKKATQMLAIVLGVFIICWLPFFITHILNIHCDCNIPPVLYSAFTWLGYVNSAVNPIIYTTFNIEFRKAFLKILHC
D3 receptor, sequence (P35462 whole entry): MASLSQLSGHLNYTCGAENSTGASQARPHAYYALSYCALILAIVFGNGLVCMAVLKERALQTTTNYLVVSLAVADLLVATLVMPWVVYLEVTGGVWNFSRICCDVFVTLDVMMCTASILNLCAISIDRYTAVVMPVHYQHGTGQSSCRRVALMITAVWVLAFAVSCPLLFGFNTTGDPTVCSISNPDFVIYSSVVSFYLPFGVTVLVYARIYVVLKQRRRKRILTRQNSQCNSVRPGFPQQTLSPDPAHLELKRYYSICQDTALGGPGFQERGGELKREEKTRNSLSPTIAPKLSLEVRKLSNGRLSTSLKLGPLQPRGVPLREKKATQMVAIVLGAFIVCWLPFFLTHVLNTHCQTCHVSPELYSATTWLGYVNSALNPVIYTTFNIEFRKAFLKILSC

| SMILES | Ki (D2 receptor) [nM] | Ki (D3 receptor) [nM] | Ki (5-HT2A receptor) [nM] | Ki (5-HT2A receptor; [1]) [nM] |
| --- | --- | --- | --- | --- |
| CC(C)C(=O)N[C@H]1CC[C@H](CCN2CCC(c3cccc4c3OCO4)CC2)CC1 [Example 23, Trans-N-{4-[2-(4-Benzo[1,3]dioxol-4-yl-piperidin-1-yl)-ethyl]-cyclohexyl}-isobutyramide] | 397 | 8.26 | 17 |  |
| CC(C)CC(=O)N[C@H]1CC[C@H](CCN2CCC(c3cccc4c3OCO4)CC2)CC1 [Example 24, Trans-N-{4-[2-(4-Benzo[1,3]dioxol-4-yl-piperidin-1-yl)-ethyl]-cyclohexyl}-3-methyl-butyramide] | 239 | 5 |  | 28.5 |
| CCCC(=O)N[C@H]1CC[C@H](CCN2CCC(c3cccc4c3OCO4)CC2)CC1 [Example 25, Trans-N-{4-[2-(4-Benzo[1,3]dioxol-4-yl-piperidin-1-yl)-ethyl]-cyclohexyl}-butyramide] | 277 | 5.7 |  | 35.8 |
| O=C(N[C@H]1CC[C@H](CCN2CCC(c3cccc4c3OCO4)CC2)CC1)C1CC1(F)F (stereo partly drawn) [Example 26, Trans-2,2-Difluoro-cyclopropanecarboxylic acid {4-[2-(4-benzo[1,3]dioxol-4-yl-piperidin-1-yl)-ethyl]-cyclohexyl}-amide] | 194 | 7.72 |  | 26.7 |
| COC(C)CC(=O)N[C@H]1CC[C@H](CCN2CCC(c3cccc4c3OCO4)CC2)CC1 (stereo partly drawn) [Example 27, Trans-N-{4-[2-(4-Benzo[1,3]dioxol-4-yl-piperidin-1-yl)-ethyl]-cyclohexyl}-3-methoxy-butyramide] | 402 | 7.52 | 33.6 |  |
| O=C(N[C@H]1CC[C@H](CCN2CCC(c3cccc4c3OCO4)CC2)CC1)C1CC(Cl)C1 (stereo partly drawn) [Example 28, 3-Chloro-cyclobutanecarboxylic acid trans-{4-[2-(4-benzo[1,3]dioxol-4-yl-piperidin-1-yl)-ethyl]-cyclohexyl}-amide] | 305 | 6.36 | 18.6 |  |
| O=C(CC1COC1)N[C@H]1CC[C@H](CCN2CCC(c3cccc4c3OCO4)CC2)CC1 [Example 29, Trans-N-{4-[2-(4-Benzo[1,3]dioxol-4-yl-piperidin-1-yl)-ethyl]cyclohexyl}-2-oxetan-3-yl-acetamide] | 258 | 5.19 |  | 21.9 |
| CO[C@@H]1CC[C@@H](CC(=O)N[C@H]2CC[C@H](CCN3CCC(c4cccc5c4OCO5)CC3)CC2)C1 [Example 30, Trans-N-{4-[2-(4-Benzo[1,3]dioxol-4-yl-piperidin-1-yl)-ethyl]-cyclohexyl}-2-((1R,3R)-3-methoxy-cyclopentyl)-acetamide] | 331 | 5.29 |  | 27.4 |
| O=C(CC1(O)CCOCC1)N[C@H]1CC[C@H](CCN2CCC(c3cccc4c3OCO4)CC2)CC1 [Example 31, Trans-N-{4-[2-(4-Benzo[1,3]dioxol-4-yl-piperidin-1-yl)-ethyl]-cyclohexyl}-2-(4-hydroxy-tetrahydro-pyran-4-yl)-acetamide] | 306 | 7.15 |  | 24.9 |
| CC(C)(O)C(=O)N[C@H]1CC[C@H](CCN2CCC(c3cccc4c3OCO4)CC2)CC1 [Example 32, Trans-N-{4-[2-(4-Benzo[1,3]dioxol-4-yl-piperidin-1-yl)-ethyl]-cyclohexyl}-2-hydroxy-2-methyl-propionamide] | 407 | 25 | 4.77 |  |
| CO[C@@H](C)C(=O)N[C@H]1CC[C@H](CCN2CCC(c3cccc4c3OCO4)CC2)CC1 [Example 33, Trans-(S)—N-{4-[2-(4-Benzo[1,3]dioxol-4-yl-piperidin-1-yl)-ethyl]-cyclohexyl}-2-methoxy-propionamide] | 464 | 50.3 |  | 29.1 |
| CO[C@H](C)C(=O)N[C@H]1CC[C@H](CCN2CCC(c3cccc4c3OCO4)CC2)CC1 [Example 34, Trans-(R)—N-{4-[2-(4-Benzo[1,3]dioxol-4-yl-piperidin-1-yl)-ethyl]-cyclohexyl}-2-methoxy-propionamide] | 504 | 27.8 |  | 9.57 |
| CC(C)(O)CC(=O)N[C@H]1CC[C@H](CCN2CCC(c3cccc4c3OCO4)CC2)CC1 [Example 35, Trans-N-{4-[2-(4-Benzo[1,3]dioxol-4-yl-piperidin-1-yl)-ethyl]-cyclohexyl}-3-hydroxy-3-methyl-butyramide] | 282 | 5.92 |  | 26.1 |
| O=C(N[C@H]1CC[C@H](CCN2CCC(c3cccc4c3OCO4)CC2)CC1)c1ccc(Cl)cc1 [Example 36, Trans-N-{4-[2-(4-Benzo[1,3]dioxol-4-yl-piperidin-1-yl)-ethyl]-cyclohexyl}-4-chloro-benzamide] | 147 | 6.36 |  | 21.8 |
| O=C(N[C@H]1CC[C@H](CCN2CCC(c3cccc4c3OCO4)CC2)CC1)c1ccc(F)cc1 [Example 37, Trans-N-{4-[2-(4-Benzo[1,3]dioxol-4-yl-piperidin-1-yl)-ethyl]-cyclohexyl}-4-fluoro-benzamide] | 234 | 4.89 | 13.1 |  |
| O=C(N[C@H]1CC[C@H](CCN2CCC(c3cccc4c3OCO4)CC2)CC1)[C@H](O)C(F)(F)F [Example 38, Trans-(S)—N-{4-[2-(4-Benzo[1,3]dioxol-4-yl-piperidin-1-yl)-ethyl]-cyclohexyl}-3,3,3-trifluoro-2-hydroxy-propionamide] | 209 | 7.63 | 20.8 |  |
| O=C(N[C@H]1CC[C@H](CCN2CCC(c3cccc4c3OCO4)CC2)CC1)[C@@H](O)C(F)(F)F [Example 39, Trans-(R)—N-{4-[2-(4-Benzo[1,3]dioxol-4-yl-piperidin-1-yl)-ethyl]-cyclohexyl}-3,3,3-trifluoro-2-hydroxy-propionamide] | 284 | 19.9 | 19.4 |  |
| O=C(C[C@@H]1CCCCO1)N[C@H]1CC[C@H](CCN2CCC(c3cccc4c3OCO4)CC2)CC1 [Example 40, Trans-N-{4-[2-(4-Benzo[1,3]dioxol-4-yl-piperidin-1-yl)-ethyl]-cyclohexyl}-2-(S)-tetrahydro-pyran-2-yl-acetamide] | 422 | 9 | 27.9 |  |
| O=C(C[C@H]1CCCCO1)N[C@H]1CC[C@H](CCN2CCC(c3cccc4c3OCO4)CC2)CC1 [Example 41, Trans-N-{4-[2-(4-Benzo[1,3]dioxol-4-yl-piperidin-1-yl)-ethyl]-cyclohexyl}-2-(R)-tetrahydro-pyran-2-yl-acetamide] | 491 | 7.65 | 12.6 |  |
| O=C(C[C@@H]1CCCOC1)N[C@H]1CC[C@H](CCN2CCC(c3cccc4c3OCO4)CC2)CC1 [Example 42, Trans-N-{4-[2-(4-Benzo[1,3]dioxol-4-yl-piperidin-1-yl)-ethyl]-cyclohexyl}-2-(S)-tetrahydro-pyran-3-yl-acetamide] | 322 | 11.7 |  | 20.1 |
| O=C(C[C@H]1CCCOC1)N[C@H]1CC[C@H](CCN2CCC(c3cccc4c3OCO4)CC2)CC1 [Example 43, Trans-N-{4-[2-(4-Benzo[1,3]dioxol-4-yl-piperidin-1-yl)-ethyl]-cyclohexyl}-2-(R)-tetrahydro-pyran-3-yl-acetamide] | 408 | 7.8 |  | 19.8 |
| CCOCCC(=O)N[C@H]1CC[C@H](CCN2CCC(c3cccc4c3OCO4)CC2)CC1 [Example 44, Trans-N-{4-[2-(4-Benzo[1,3]dioxol-4-yl-piperidin-1-yl)-ethyl]-cyclohexyl}-3-ethoxy-propionamide] | 393 | 7.32 |  | 55 |
| O=C(CC1(O)CCC1)N[C@H]1CC[C@H](CCN2CCC(c3cccc4c3OCO4)CC2)CC1 [Example 45, Trans-N-{4-[2-(4-Benzo[1,3]dioxol-4-yl-piperidin-1-yl)-ethyl]-cyclohexyl}-2-(1-hydroxy-cyclobutyl)-acetamide] | 262 | 6.41 | 26.8 |  |
| O=C(N[C@H]1CC[C@H](CCN2CCC(c3cccc4c3OCO4)CC2)CC1)C1CCCO1 (stereo partly drawn) [Example 46, Tetrahydro-furan-2-carboxylic acid-trans-{4-[2-(4-benzo[1,3]dioxol-4-yl-piperidin-1-yl)-ethyl]-cyclohexyl}-amide] | 464 | 47.6 |  | 14.4 |
| O=C(N[C@H]1CC[C@H](CCN2CCC(c3cccc4c3OCO4)CC2)CC1)C1CCOC1 (stereo partly drawn) [Example 47, Tetrahydro-furan-3-carboxylic acid-trans-{4-[2-(4-benzo[1,3]dioxol-4-yl-piperidin-1-yl)-ethyl]-cyclohexyl}-amide] | 165 | 7.61 |  | 24.1 |
| O=C(N[C@H]1CC[C@H](CCN2CCC(c3cccc4c3OCO4)CC2)CC1)C1CCOCC1 [Example 48, Tetrahydro-pyran-4-carboxylic acid-trans-{4-[2-(4-benzo[1,3]dioxol-4-yl-piperidin-1-yl)-ethyl]-cyclohexyl}-amide] | 184 | 13.8 |  | 9.52 |
| O=C(N[C@H]1CC[C@H](CCN2CCC(c3cccc4c3OCO4)CC2)CC1)C1(O)CC1 [Example 49, 1-Hydroxy-cyclopropanecarboxylic acid-trans-{4-[2-(4-benzo[1,3]dioxol-4-yl-piperidin-1-yl)-ethyl]-cyclohexyl}-amide] | 245 | 6.09 | 8.17 |  |
| O=C(N[C@H]1CC[C@H](CCN2CCC(c3cccc4c3OCO4)CC2)CC1)C1(C(F)(F)F)CC1 [Example 50, Trifluoromethyl-cyclopropanecarboxylic acid-trans-N-{4-[2-(4-benzo[1,3]dioxol-4-yl-piperidin-1-yl)-ethyl]-cyclohexyl}-amide] | 246 | 40.9 |  | 19 |
